Laboratory results reported in patent US20240360137A1 (Novartis AG, priority 2023, published 2024).

How the values were obtained:
[1] = tested on: RB phosphorylation (Ser 807/811) in OVCAR3 xenograft tumors; experiment: In vivo pharmacodynamic assessment in Cyclin E amplified OVCAR3 xenograft model (RB phosphorylation by MSD); parameters: species or system NSG mice; conditions: Mus musculus, 3 days, 1 hour after the last dose; for inhibition at 30 mg/kg: OVCAR-3, 30 mg/kg twice daily (BID) oral
From the text: Cyclin-dependent kinase 2 (CDK2) is a member of the protein kinase family. It plays an important role in regulating various events of the eukaryotic cell division cycle. CDK2 is involved in the inactivation of the retinoblastoma protein (RB) by phosphorylation which then allows for the G1 to S phase transition of the cell cycle. Overexpression of cyclin E, the obligate binding partner of CDK2, can cause abnormal regulation of the cell cycle, which is directly associated with hyperproliferation of cancer cells. Therefore, CDK2 is regarded as a potentially impactful therapeutic target for cancer treatment. The purpose of these studies was to evaluate the PK/PD relationship of CDK2 inhibitors in Cyclin E amplified cancer cell lines in vivo in immunodeficient mice. Plasma and tumor tissues were collected for PK analysis and PD assays (read out of RB phosphorylation inhibition) after 3 days of dosing of the CDK2 inhibitor.
(§1) The Cyclin E amplified ovarian cancer cell line OVCAR3 was tested to be free of Mycoplasma and murine viruses using the IDEXX Impact 8 panel. Cells were cultured in RPMI 1640 media supplemented with 20% FBS for fewer than 5 passages after initial thawing and prior to cell implantation into immunodeficient mice. Cells were harvested and resuspended in sterile PBS containing 50% Matrigel. Ten million viable cells were injected at a volume of 0.2 ml per mouse into the flank of immunocompromised NSG mice (1 implant per animal). When tumors reached a mean volume of 200-300 mm^3, mice were randomized and treatments were initiated. Compounds were formulated in 10% HPBCD (hydroxypropyl beta cyclodextrin) and administered orally, twice a day, in a volume of 10 ml/kg. The dosing volume was adjusted based on individual mouse body weight on the day of dosing. Pharmacodynamic markers were evaluated on day 3.
For terminal PD biomarker analysis, mice were euthanized following 3 days of treatment (1 hour post 5th dose). […] RB phosphorylation levels of the resulting tumor protein lysates were then determined by MSD. […] Values were calculated and normalized to the untreated controls. […]

[2] = PK analysis of plasma in OVCAR3 xenograft study; assay type: in vivo, NSG mice; conditions: 60 mg/kg BID oral, compared to Compound 1 and Compound 2 at 30 mg/kg BID
Experimental: as §1
For determination of compound plasma concentrations, serial blood collections were performed at designated timepoints after dosing. Blood was collected in EDTA-lined tubes and placed on wet ice. Within 30 minutes of collection, blood was centrifuged, and the plasma supernatants were aliquoted and stored at −20 C until analyzed. […] CDK2 inhibitor concentrations were measured by LC-MS/MS analysis on API 4500, API 5500+, or Sciex 7500 instruments. […]

exposure [2]	SMILES	inhibition at 30 mg/kg [1]	inhibition at 60 mg/kg ([1]; OVCAR-3, 60 mg/kg twice daily (BID) oral)
	COc1n[nH]cc1Nc1ncc2c(n1)N([C@@H]1CCC[C@@H](O)C1)C(=O)C21CC1 [Compound 1]	~80%	
	CCOc1n[nH]cc1Nc1ncc2c(n1)N([C@@H]1CCC[C@@H](O)C1)C(=O)C21CC1 [Compound 2]	~80%	
lower exposure	CS(=O)(=O)N1CC[C@H](Nc2ncc3c(n2)N([C@@H]2CCC[C@@H](O)C2)C(=O)C32CC2)[C@H](F)C1 [Compound 3, reference compound]		~50%
